Test results: patent publication US7612255B2, “Transgenic plants for mitigating introgression of genetically engineered genetic traits” (priority 1999, dated 2009)

What was measured:
[1] = tested on: Δgai-transformed male sterile tobacco plants; assay type: in vivo, Nicotiana tabacum; conditions: kinetin foliar spray; normal fertilization and seed development
Excerpt: Seed production on Δgai male sterile plants: The Δgai effect on pollen production is not irreversible: treatment of plants with cytokinins results in plants producing fertile pollen, and capable of self fertilization. Hemizygous imazapyr resistant and semi-dwarf primary TM tobacco transformants (lines 7, 8, and 10) were transferred to soil and grown to flowering. […] The chemicals were in an aqueous solution containing 0.1% (v/v) Tween 20 surfactant. The control group received the surfactant solution only, or none at all. All applications were made through foliar spray every other day for 2 weeks. Female fertility was assessed by backcrossing wild type pollen donors were backcrossed to one plant from each line without kinetin application (FIG. 4). At maturity, the capsules formed on each plant were counted and the dry weight of seed set of up to 5 capsules per each plant was measured. Normal seed set was observed.
Anthers were collected from three flowers per plant. A minimum of three plants per biotype were analyzed. Pollen viability was scored by staining the pollen with cotton blue stain [Phillips, R. L. in G. Clark, ed. […]
Floral bud and pistil development of the TM transgenic plants were similar to that of wild type plants. […] Pollen viability, scored by staining tests, of these restored lines was >93% compared to approximately 0% of non-treated plants (FIG. 4). […]

red rice = conditions: fields of transgenic rice bearing the bar gene (Oard et al. 2000); cited from earlier work
non-transgenic B. napus = assay: Rooting of regenerated plantlets in the presence of kanamycin; assay type: in vivo, Brassica napus; conditions: root formation of regenerated B. napus plantlets
Excerpt: Transformation of oilseed rape (B. napus cv. Westar): The Agrobacterium tumefaciens-mediated transformation protocol of Moloney, et al (Plant Cell Reports 1989; 8,238-242) using excised cotyledonary petioles of B. napus cv. Westar seedlings was followed with some modifications. Excised cotyledons of axenic B. napus cv. Westar seedlings were inoculated by dipping the cut end of a 2 mm petiole in a suspension of A. tumefaciens strain EHA105 or EHA 101 containing the same TM 1 construct described in detail in Example 1. Non-transformed cotyledons served as negative controls. After co-cultivation for 2.5 days, the cotyledons were regenerated on Murashige-Skoog (MS) medium containing 500 mg/L carbenicillin to kill A. tumefaciens and 20 mg/L kanamycin as the primary plant selectable marker. Some healthy calli developed on the cut petioles and regenerated into green shoots which were then sub-cultured onto shoot elongation medium containing 300 mg/L carbenicillin and either 20 mg/L kanamycin or 0.2 μM imazapyr herbicide as secondary selectable marker of the putative transformants. The shoots were then rooted, potted, and transferred to the greenhouse to grow flower and set seed. The putative transformants were tested by PCR (FIG. 5) and by AHAS enzymatic assay (as described in Example 1 herein above) (FIG. 6) to confirm TM transformation. […]

[2] = tested on: non-transformed tobacco plants; assay: Seed germination in the presence of kanamycin or imazapyr (tobacco); assay type: in vivo, Nicotiana tabacum; conditions: tobacco seeds on Nitsch agar medium; sensitive seedlings stop growing within 10 days
Procedure: Surface sterilized seeds of wild type, the backcross of primary transformants with wild type T0 (=BC), T1, T2, and T3 tobacco plants were planted on either medium. Sensitive seedlings were identified as those that stopped growing within 10 days, forming only short roots and cotyledons, while resistant seedlings grew well, forming long roots and true leaves, continuing their growth past 10 days. The segregation ratio of wild type to TM of each line was calculated. Resistant/dwarfed seedlings were grown to maturity in soil and the plants were analyzed for AHAS resistance (phenotype) and for ahas^R and Δgai insert by PCR (genotype), as described herein above.
Competition of TM transgenics with the wild type, and self competition of each alone: The transgenic TM tobacco was used to simulate a TM introgressed hybrid or transgenic volunteer crop, and the wild type tobacco was used to simulate a non-transgenic crop, weed, or wild plant. The competitive interactions between the transgenic and wild type plants were assessed in two separate internally replicated greenhouse experiments. In both experiments, seeds obtained from the first backcross T1 (═BC1) of a representative TM line T1-7 (pollen recipient) and wild type (pollen donor) were used to grow mixed TM and wild type cultures. […]

[3] = tested on: non-transformed B. napus plants; assay: Seed germination in the presence of kanamycin or imazapyr (oilseed rape); assay type: in vivo, Brassica napus; conditions: B. napus seeds on Nitsch agar medium
Procedure: Seed germination in the presence of kanamycin or imazapyr: A discriminatory dose level of Nitsch (Nitsch, Nicotiana. Phytomorphology 1969; 19, 389-404) agar medium containing 150 mg/L kanamycin or 0.3 μM imazapyr inhibiting the growth of non-transformed plants was determined. Surface sterilized seeds of non-transgenic, and TM B. napus plants were planted on either medium. Sensitive seedlings stopped growing within 10 days forming only short roots and cotyledons, while resistant seedlings formed long roots and true leaves and continued their growth. The segregation ratio of non-transgenic to TM of each line was calculated. Resistant/dwarfed seedlings were grown to maturity in soil and the plants were analyzed for AHAS resistance and for ahas^R and Δgai insert by PCR, as described above.
Competition of TM transgenic vs. non-transgenic Brassica napus plants and self competition of each alone: The competitive interactions between the TM transgenic vs. non-transgenic Brassica napus plants were assessed in replicated greenhouse experiments. In the first experiment seeds obtained from the selfed homozygous TM lines T1-J9-4 and -6 were used to grow the TM plants in mixed cultures with the non-transgenic plants in a 1:1 TM/WT ratio. […]

## c1coc(CNc2ncnc3[nH]cnc23)c1 [kinetin]
[1]
  Restoration of fertility of male sterile TM transgenic plants: restored the fertility

## CP(=O)(O)CCC(N)C(=O)O (stereo not drawn) [glufosinate]
Red rice
  Control of red rice: easily controlled

## NC[C@H]1O[C@H](O[C@H]2[C@H](O)[C@@H](O[C@H]3O[C@H](CO)[C@@H](O)[C@H](N)[C@H]3O)[C@H](N)C[C@@H]2N)[C@H](O)[C@@H](O)[C@@H]1O [kanamycin]
non-transgenic B. napus
  Kanamycin concentration which inhibits the non-transgenics: 20 mg/L
[2]
  Discriminatory dose level inhibiting the growth of non-transformed plants: 85.8 µM
[3]
  Discriminatory dose level inhibiting the growth of non-transformed plants: 150 mg/L

## CC(C)C1(C)N=C(c2ncccc2C(=O)O)NC1=O (stereo not drawn) [imazapyr]
[2]
  Discriminatory dose level inhibiting the growth of non-transformed plants: 0.3 µM
